Experimental data: US7498292B2, “Combinatorial libraries of autoinducer analogs, autoinducer agonists and antagonists, and methods of use thereof” (The Research Foundation of State University of New York, priority 2002, dated 2009)
“Also recorded” adds a separate entry of the source. Like-named read-outs stand apart in the source and are kept apart here.

How the values were obtained:
LasR [1] = molecular target: T1, LasR (Pseudomonas aeruginosa, UniProt P25084); test: lasI-gfp reporter agonist assay, PAO-JP2 (plasI-LVAgfp); assay type: cell-based, P. aeruginosa; conditions: for agonist activity (induction of lasI-gfp reporter): PAO-JP2 (plasI-LVAgfp), compounds made in solution phase, increasing concentrations (1, 100, 400 μM)
T1 construct: endogenous in cells; host or cells: P. aeruginosa PAO-JP2 (lasI, rhlI) harboring plasI-LVAgfp
T1 sequence (P25084 whole entry): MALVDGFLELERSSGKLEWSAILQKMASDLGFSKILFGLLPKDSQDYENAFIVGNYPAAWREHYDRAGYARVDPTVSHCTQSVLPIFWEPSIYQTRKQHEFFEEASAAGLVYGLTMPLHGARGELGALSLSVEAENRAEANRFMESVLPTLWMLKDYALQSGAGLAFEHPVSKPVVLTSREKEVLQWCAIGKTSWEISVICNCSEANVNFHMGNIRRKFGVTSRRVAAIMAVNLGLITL
Excerpt: Since this strain lacks the ability to produce natural AIs due to disruption of both AI synthase genes, activation of LasR relies on the addition of exogenous AI1. Expression of gfp (encoding green fluorescent protein) is under control of the LasR-AI1 inducible lasI promoter, allowing rapid screening for LasR agonists by measuring the level of GFP expression in their presence.
(§1) P. aeruginosa strain PAO-JP2 (lasI, rhlI) (Rahme et al., Science 268:1899-1902 (1995), which is hereby incorporated by reference in its entirety) harboring plasI-LVAgfp (Pearson et al., Proc. Natl Acad. Sci. USA 91:197-201 (1994), which is hereby incorporated by reference in its entirety) was grown at 37° C. in LB with 300 μg/ml carbenicillin. For agonist assays, an overnight culture was diluted to an OD600 of 0.1 and transferred to wells of a 96-well plate on which test compounds had previously been added and dried. The final concentration of each analog tested was roughly 400 μM, although this is an overestimate due to purity issues. Cells were then incubated for 6 hours at 37° C. with vigorous shaking. GFP expression was detected with a Molecular Imager (BioRad) (488 nm excitation and 695 nm bandpass filter) and quantified with ImageQuant software. The OD600 of cultures was determined to normalize GFP expression to cell density.
(§2) Reporter strains were grown overnight in LB plus 300 μg/ml carbenicillin at 37° C. and diluted to an OD600 of 0.1. Following an incubation of 1 hour, 200 μl of cell culture was added to individual wells of a 96 well plate containing appropriate amount of test compound(s). Plates were incubated for 6 hours and then scanned for fluorescence emission with a Molecular Imager (488 nm excitation and 695 nm bandpass filter). Fluorescence was quantified with ImageQuant software.

LasR [2] = molecular target: T1, LasR; test: lasB-lacZ reporter assay, E. coli MG4 (pKDT37); assay type: cell-based, P. aeruginosa
Description: E. coli strain MG4 (pKDT37) was grown overnight in Supplemented A media with 100 μg/mL ampicillin at 30° C. and diluted 1:100 in the same media. 1 mL of this culture was added to a test tube containing AI1 or 3-oxo-C12-D12 that had been previously aliquoted and dried. Following a 6 hour incubation at 30° C., β-galactosidase activity was determined using standard methods (Platt et al., Assays of the lac operon Enzymes In: Experiments in Molecular Genetics, Cold Spring Harbor Laboratory Press, Cold Spring Harbor, N.Y., pp. 352-355 (1972), which is hereby incorporated by reference in its entirety).
One of the new agonist structures identified from the library, D12, is 2-aminocyclohexanol (FIG. 5B). […] 3-oxo-C12-D12, containing the natural side chain, was synthesized in solution phase, and tested with both the lasI-gfp reporter as well as a lasB-lacZ reporter in Escherichia coli. E. coli strain MG4 harboring plasmid pKDT37 expresses lasR and contains a lacZ reporter gene controlled by a LasR-AI1 inducible lasB promoter (Passador et al., J. Bacteriol. 178:5995-6000 (1996), which is hereby incorporated by reference in its entirety). […] It also provides strong evidence that the agonist activity in P. aeruginosa is LasR dependent.

RhlR [3] = molecular target: T2, RhlR (Pseudomonas aeruginosa, UniProt P54292); assay type: cell-based, P. aeruginosa; conditions: for AI2 agonist activity (induction of rhlI-gfp reporter): in the presence of 1 μM AI1, 10, 100, 400 μM analog
T2 construct: an RhlR-AI2 controlled rhlI-gfp reporter, PAO-JP2 (prhlI-LVAgfp); endogenous in cells; host or cells: P. aeruginosa PAO-JP2 (prhlI-LVAgfp)
T2 sequence (P54292 whole entry): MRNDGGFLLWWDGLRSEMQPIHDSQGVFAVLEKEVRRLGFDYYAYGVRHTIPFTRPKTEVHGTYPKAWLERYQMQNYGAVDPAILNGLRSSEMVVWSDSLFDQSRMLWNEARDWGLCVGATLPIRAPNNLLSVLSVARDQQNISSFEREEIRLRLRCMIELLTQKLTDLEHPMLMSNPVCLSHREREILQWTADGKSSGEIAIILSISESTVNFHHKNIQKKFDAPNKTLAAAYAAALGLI
Description: Thus, it was hypothesized that a 5- or 6-membered ring with a keto or hydroxyl group (or other hydrogen bond acceptor) adjacent to the amine is sufficient for both binding and activation of LasR. To test this hypothesis, the series of molecules shown in FIG. 13 (compounds 14) was synthesized.
as §2
The C4 compounds (A12 and 5-8) were analyzed for agonist activity using PAO-JP2 (prhlI-LVAgfp) (FIGS. 14C and D). Induction of GFP expression in this reporter requires addition of both AI1 and AI2. The AI2 control and agonist assays, therefore, were performed in the presence of 1 μM AI1 and increasing concentrations of AI2 or analog (FIGS. 14C and D).

lac promoter = test: GFP expression from lac promoter, PAO-JP2 (pTdK-GFP) (specificity control); assay type: cell-based, P. aeruginosa; conditions: lasI promoter replaced with a lac promoter
RhlR [4] = test: rhlI-gfp reporter antagonist assay, PAO-JP2 (prhlI-LVAgfp); assay type: cell-based, P. aeruginosa; conditions: competing against 1 μM AI1 and 10 μM AI2
Description: Each compound in the library was tested for antagonist activity using the same reporter strain, PAO-JP2 (plasI-LVAgfp) (de Kievit et al., Appl. Environ. Microbiol. 67:865-1873 (2001), which is hereby incorporated by reference in its entirety) to find compounds that could compete against AI1 and reduce GFP expression. The methods were the same as described in Example 2 (GFP Reporter Assay), except that 1 μM AI1 was added to each well in combination with the library compound. The fluorescence/OD600 of each compound competing against AI1 was reported relative to the fluorescence/OD600 of the positive control of AI1 alone, which was set to 1. When strain PAO-JP2 (prhlI-LVAgfp) was used, the positive control was 1 μM AI1 and 10 μM AI2.
3- oxo-C12-D10 was synthesized in solution phase, where the natural side chain was coupled with D10 and purified by chromatography. To determine if the same structural motif can be applied to inhibition of the RhlR-AI2 interaction, C4-D10 was also synthesized. Assays were performed with both the lasI-gfp reporter PAO-JP2 (plasI-LVAgfp) and an RhlR-AI2 controlled rhlI-gfp reporter, PAO-JP2 (prhlI-LVAgfp) (FIGS. 10A-C) (de Kievit et al., Appl. Environ. Microbiol. 67:865-1873 (2001), which is hereby incorporated by reference in its entirety).
as §2
Next the ability of 2 and 3 to inhibit the rhlI-gfp reporter strain PAO-JP2 (prhlI-LVAgfp) was tested, since this expression is also AI1-dependent.

pyocyanin [5] = test: pyocyanin assay, wild type strain PAO1; assay type: cell-based, P. aeruginosa PAO1; conditions: wild type PAO1, no AIs added
Description: (§3) For the pyocyanin assay, cells were grown overnight in LB then washed in fresh media and diluted to an OD600 of 0.05. This culture was grown for 3-4 hours to mid-log phase (OD600 of 0.3-0.5), then diluted to an OD600 of 0.05, and aliquoted to test tubes containing an appropriate amount of test compound(s). Following 18 hours of growth, pyocyanin was extracted from filtered culture supernatants and quantified using standard methods (Essar et al., J. Bacteriol. 172:884-900 (1990), which is hereby incorporated by reference in its entirety).

PAO1 (pTdK-GFP) biofilm = test: static biofilm assay, PAO1 (pTdK-GFP); assay type: cell-based, P. aeruginosa
Description: (§4) Compound 3 was tested for its effect on biofilm development in a 24-hour assay that looks at the early stages of biofilm formation. […] Cultures were grown at 37° C. with shaking for 30 minutes, and then allowed to sit at 37° C. for an additional 23.5 hours. Coverslips were then rinsed and placed on slides for visualization using an MRC1024 Laser Scanning Microscope (BioRad) with a Nikon Fluor-60X oil emersion objective lens (NA=1.4), 488 nm Argon Laser and OG515 filter.
The same assay was run with strain PAO-1 (pTdK-GFP), and no exogenous autoinducers were added. […] The above results provide additional evidence that compound 3 interferes with QS signaling and reduces the production of important virulence factors.

Elastase B [6] = test: elastase (Elastin Congo Red) assay, wild type strain PAO1; assay type: cell-based, P. aeruginosa PAO1; conditions: wild type PAO1, no exogenous autoinducers
Description: (§5) Pyocyanin, elastase, and biofilm were assayed as previously described (Smith et al., Chem. Biol. 10:81-89 (2003), which is hereby incorporated by reference in its entirety). Elastase activity produced by P. aeruginosa in the presence of AIs and competing 3-oxo-C12-D10 was determined by measuring breakdown of the substrate Elastin Congo Red.
(§6) For the elastase B assay, cells (PAO-JP2) were grown overnight in PTSB media (5% Peptone, 0.1% Tryptic Soy Broth) at 37° C., washed and diluted to an OD600 of 0.05, grown to mid-log phase, washed again, and re-suspended to an OD600 of 0.05. The culture was then added to test tubes containing test compound(s) and grown for 6 hours. Elastase B activity was quantified by incubation of 100 μl of filtered culture supernatant with 5 mg Elastin Congo Red substrate and 1 ml of 10 mM Tris pH 7.2, 1 mM CaCl2 for 6 hours at 37° C. with agitation. Elastase B activity is represented by the OD495 of the enzyme assay following reaction quenching with EDTA and centrifugation to remove unreacted substrate, divided by the OD600 of the cell culture. The same assay was run with strain PAO-1, however no exogenous autoinducers were added.

Elastase B [7] = test: elastase (Elastin Congo Red) assay, strain PAO-JP2; assay type: cell-based, P. aeruginosa PAO-JP2; conditions: PAO-JP2, 10-100 μM compound, competing against 5 μM AI1 and 10 μM AI2
Description: as §5, §6

LasR [8] = molecular target: T1, LasR; test: lasI-gfp reporter antagonist (competition against AI1) assay, PAO-JP2 (plasI-LVAgfp); assay type: cell-based, P. aeruginosa; conditions: for reduction of GFP expression (lasI-gfp): 1 μM AI1
Description: as §1
The methods were the same as described in Example 2 (GFP Reporter Assay), except that 1 μM AI1 was added to each well in combination with the library compound. The fluorescence/OD600 of each compound competing against AI1 was reported relative to the fluorescence/OD600 of the positive control of AI1 alone, which was set to 1. When strain PAO-JP2 (prhlI-LVAgfp) was used, the positive control was 1 μM AI1 and 10 μM AI2. Eight compounds that inhibited reporter gene expression by greater than 50% were identified (see, e.g., FIG. 6).
as §2

pyocyanin [9] = test: pyocyanin assay, strain PAO-JP2; assay type: cell-based, P. aeruginosa PAO-JP2; conditions: PAO-JP2, 25 μM each of AI1 and AI2, 18 hours
Description: as §3

[10] = tested on: PAO-JP2 (pTdK-GFP) biofilm; test: static biofilm assay, PAO-JP2 (pTdK-GFP); assay type: cell-based, P. aeruginosa; conditions: PAO-JP2 (pTdK-GFP) with exogenous AIs, 24-hour static assay
Description: as §4

SMILES: CCCCCCCCCC(=O)CC(=O)N[C@@H]1CCCC[C@H]1O (relative stereo) [Compound 4, N-(trans-2-hydroxycyclohexyl)-3-oxododecanamide]
- agonist activity (induction of lasI-gfp reporter) (LasR [1]): strong agonist activity; also recorded: strongest agonist
- agonist activity (induction of lasI-gfp reporter) (LasR [1]; listed as 3-oxo-C12-D12): activated
- GFP induction, fold less than AI1 (LasR [1]; at 1 μM): 2 fold
- GFP induction compared with AI1 (LasR [1]; at higher concentrations (100, 400 μM)): comparable to AI1
- lasB-lacZ reporter activation (beta-galactosidase activity) (LasR [2]; E. coli MG4 (pKDT37), 6 hour incubation): activated
- LasR inducing activity compared with natural AI1 (LasR [2]; lasI-gfp and lasB-lacZ reporters (FIG. 9)): comparable to the natural AI1

SMILES: CCCC(=O)NC1CCCCC1=O (stereo not shown) [Compound 7, N-2-oxocyclohexylbutanamide]
- AI2 agonist activity (induction of rhlI-gfp reporter) (RhlR [3]): strong agonist activity

SMILES: CCCC(=O)N[C@@H]1CCCC[C@H]1O (relative stereo) [Compound 8, N-(trans-2-hydroxy)cyclohexylbutanamide]
- GFP expression (rhlI-gfp) (RhlR [3]; 400 μM analog, 1 μM AI1): moderate GFP expression
- AI2 agonist activity (induction of rhlI-gfp reporter) (RhlR [3]): very little AI2 agonist activity

SMILES: CCCCCCCCCC(=O)CC(=O)N[C@@H]1CCC[C@H]1O (relative stereo) [Compound 2, N-(trans-2-hydroxycyclopentyl)-3-oxododecanamide]
- agonist activity (induction of lasI-gfp reporter) (LasR [1]): nearly unable to induce the reporter
- inhibition of GFP expression from lac promoter (lac promoter): inability to inhibit GFP expression
- antagonist activity on rhlI-gfp reporter (RhlR [4]): no antagonist activity

SMILES: CCCCCCCCCC(=O)CC(=O)NC1CCCC1=O (stereo not shown) [Compound 1, N-(2-oxocyclopentyl)-3-oxododecanamide]
- agonist activity (induction of lasI-gfp reporter) (LasR [1]): able to induce the reporter only at a very high concentration; also recorded: weak agonist

SMILES: CCCCCCCCCC(=O)CC(=O)Nc1ccccc1O [3-oxo-C12-D10]
- effect on pyocyanin production (pyocyanin [5]): not able to interfere with pyocyanin production
- effect on biofilm morphology (PAO1 (pTdK-GFP) biofilm; wild type PAO1): fluffy
- effect on biofilm formation (PAO1 (pTdK-GFP) biofilm; wild type PAO1, no exogenous autoinducers): did not interfere with biofilm formation
- effect on elastase activity (Elastase B [6]): reduced elastase activity
- reduction of elastase activity (Elastase B [7]): approximately 50%
- las circuit inhibition, comparison of potency (LasR [8]): more potent than 3
- reduction of GFP expression (lasI-gfp) (LasR [8]; 10 μM compound): approximately 60%
- reduction of GFP expression (lasI-gfp) (LasR [8]; 100 μM compound): ~90%
- inhibition of GFP expression (rhlI-gfp) (RhlR [4]; 50 μM compound): more than 80%
- effect on pyocyanin production (pyocyanin [9]): not able to interfere with pyocyanin production
- effect on biofilm formation [10]: slightly enhanced rather than inhibited

SMILES: CCCC(=O)NC1CCCC1=O (stereo not shown) [Compound 5, N-2-oxocyclopentylbutanamide]
- AI2 agonist activity (induction of rhlI-gfp reporter) (RhlR [3]): strong agonist activity

SMILES: CCCC(=O)N[C@@H]1CCC[C@H]1O (relative stereo) [Compound 6, N-(trans-2-hydroxy)cyclopentylbutanamide]
- AI2 agonist activity (induction of rhlI-gfp reporter) (RhlR [3]): no agonist activity
- AI2 agonist activity (induction of rhlI-gfp reporter) (RhlR [3]; listed as C4-(2-aminocylcopentanol)): could not activate RhlR
- antagonist activity on rhlI-gfp reporter (RhlR [4]): no inhibition
